Measurements from patent US9255257B2, “PmST1 mutants for chemoenzymatic synthesis of sialyl lewis X compounds” (THE REGENTS OF THE UNIVERSITY OF CALIFORNIA, priority 2011, dated 2016).

What was measured:
Assay type in all cases: biochemical
[1] = molecular target: Pasteurella multocida PmST1 double mutant E271F/R313Y of SEQ ID NO: 13 (E247F/R289Y of Δ24PmST1, SEQ ID NO: 11) (Pasteurella multocida, UniProt Q15KI8, E271F/R313Y); experiment: α2-3-sialyltransferase activity, LacβMU as acceptor; details: apparent, donor, LacβMU 1 mM, Tris-HCl pH 8.5, 37° C.
Method: (§1) To obtain the apparent kinetic parameters of LacβMU as the acceptor for the α2-3-sialyltransferase activity, the kinetic assays were performed in duplicate in reaction mixtures of 10 μL containing Tris-HCl buffer (100 mM, pH 8.5), a fixed concentration of CMP-Neu5Ac (1 mM), different concentrations of LacβMU (0.2, 0.5, 1.0, 2.0, 5.0, and 9.0 mM) and the mutant proteins (2 μg mL^−1 of E271F, 2 μg mL^−1 of R313Y, and 1.6 μg mL^−1 of E271F/R313Y). All reactions were allowed to proceed at 37° C. for 5 min (E271F), 7 min (R313Y), and 10 min (E271F/R313Y). The apparent kinetic parameters were obtained by fitting the experimental data (the average values of duplicate assay results) into the Michaelis-Menten equation using Grafit 5.0.
(§2) To obtain the apparent kinetic parameters of CMP-Neu5Ac as the donor for the α2-3-sialyltransferase activity, the kinetic assays were performed in duplicate in reaction mixtures of 10 μL containing Tris-HCl buffer (100 mM, pH 8.5), a fixed concentration of LacβMU (1 mM), different concentrations of CMP-Neu5Ac (0.1, 0.2, 0.5, 1.0, 2.0, 5.0, 10.0 and 20.0 mM) and the mutant proteins (2 μg mL^−1 of E271F, 2 μg mL^−1 of R313Y, and 1.6 μg mL^−1 of E271F/R313Y). All reactions were allowed to proceed at 37° C. for 2 min (E271F), 7 min (R313Y), and 5 min (E271F/R313Y). The apparent kinetic parameters were obtained by fitting the experimental data (the average values of duplicate assay results) into the Michaelis-Menten equation using Grafit 5.0.
(§3) All the sialidase and α2-3-sialyltransferase assays were performed in an HPLC system. Reactions were stopped by adding 10 μL of ethanol. After necessary dilutions were performed to adjust the concentrations of the fluorescent-labeled compounds, the samples were then kept on ice until aliquots of 8 μL were injected and analyzed by a Shimadzu LC-6AD system equipped with a membrane on-line degasser, a temperature control unit, and a fluorescence detector (Shimadzu RF-10AXL). A reverse-phase Premier C18 column (250×4.6 mm i.d., 5 μm particle size, Shimadzu) protected with a C18 guard column cartridge was used. The mobile phase was 25% acetonitrile. The fluorescent compounds LacβMU and Neu5Acα2-3LacβMU were detected by excitation at 325 nm and emission at 372 nm.

[2] = molecular target: Pasteurella multocida PmST1 mutant E271F of SEQ ID NO: 13 (E247F of Δ24PmST1, SEQ ID NO: 7) (Pasteurella multocida, UniProt Q15KI8, E271F); experiment: as above; details: apparent, donor, LacβMU 1 mM, Tris-HCl pH 8.5, 37° C.
Method: as §1, §2, §3

[3] = molecular target: Pasteurella multocida PmST1 mutant R313Y of SEQ ID NO: 13 (R289Y of Δ24PmST1, SEQ ID NO: 9) (Pasteurella multocida, UniProt Q15KI8, R313Y); experiment: as above; details: apparent, donor, LacβMU 1 mM, Tris-HCl pH 8.5, 37° C.
Method: as §1, §2, §3

[4] = molecular target: Pasteurella multocida PmST1 mutant M144D of SEQ ID NO: 13 (M120D of Δ24PmST1, SEQ ID NO: 3) (Pasteurella multocida, UniProt Q15KI8, M144D); experiment: α2-3-sialyltransferase activity, Le^xβMU as acceptor; details: apparent, donor, Le^xβMU 1 mM, CAPSO pH 9.5, 37° C.
Method: (§4) Site-directed mutagenesis, expression and purification of PmST1 mutants. Site-directed mutagenesis was performed using the QuikChange multi-site-directed mutagenesis kit from Stratagene according to the manufacturer's protocol. The primers used were 5′-[…]-3′ (SEQ ID NO:35) for M144D; 5′-[…]a[…] -3′ (SEQ ID NO:36) for M144H; 5′-[…]-3′ (SEQ ID NO:37) for A35D; and 5′-[…]-3′ (SEQ ID NO:38) for A35H. The expression and purification of the mutants were performed as previously described for the WT PmST1 .
(§5) Kinetics of the α2-3-sialyltransferase activity of PmST1 mutants by HPLC analysis. With LacβMU as the acceptor substrate, the reactions were performed in duplicate at 37° C. for 10 min (M144D) or 4 min (M144H) in a reaction mixture (10 μL) containing Tris-HCl (100 mM, pH 8.5), an enzyme (5 μg mL^−1), and different concentrations (0.2, 0.5, 1.0, 2.0, and 5.0 mM) of LacβMU with a fixed concentration (1 mM) of CMP-Neu5Ac or different concentrations (0.2, 0.5, 1.0, 2.0, 5.0, and 10.0 mM) of CMP-Neu5Ac with a fixed concentration (1 mM) of LacβMU. With Le^xβMU as the acceptor substrate, the reactions were carried out in duplicate at 37° C. for 9 min (M144D) or 10 min (M144H) in a reaction mixture (10 μL) containing CAPSO (100 mM, pH 9.5), an enzyme (M144D, 39 μg mL^−1 or M144H, 5 μg mL^−), and various concentrations of Le^xβMU (1.0, 5.0, 10.0, 15.0, 25.0, and 35.0 mM) with a fixed concentration (1 mM) of CMP-Neu5Ac or various concentrations (0.2, 0.5, 1.0, 2.0, 5.0, 10.0, 20.0, and 40.0 mM) of CMP-Neu5Ac with a fixed concentration (1 mM) of Le^xβMU. Reactions were stopped by adding 10 μL of pre-chilled ethanol. The mixtures were incubated on ice for 30 min and centrifuged at 13,000 rpm for 5 min. The supernatants were diluted with 25% acetonitrile and kept on ice until aliquots of 8 μL were injected and analyzed by the Shimadzu LC-6AD system equipped with a membrane on-line degasser, a temperature control unit, and a fluorescence detector (Shimadzu RF-10AXL). A reverse-phase Premier C18 column (250×4.6 mm i.d., 5 μm particle size, Shimadzu) protected with a C18 guard column cartridge was used. The mobile phase was 25% acetonitrile. The fluorophore (MU)-labeled compounds were detected by excitation at 325 nm and emission at 372 nm. The apparent kinetic parameters were obtained by fitting the experimental data (the average values of duplicate assay results) into the Michaelis-Menten equation using Grafit 5.0.

[5] = molecular target: Pasteurella multocida PmST1 mutant M144H of SEQ ID NO: 13 (M120H of Δ24PmST1, SEQ ID NO: 5) (Pasteurella multocida, UniProt Q15KI8, M144H); experiment: as above; details: apparent, donor, Le^xβMU 1 mM, CAPSO pH 9.5, 37° C.
Method: as §4, §5

SMILES: CC(=O)N[C@H]1[C@H]([C@H](O)[C@H](O)CO)O[C@](OP(=O)(O)OC[C@H]2O[C@@H](n3ccc(N)nc3=O)[C@H](O)[C@@H]2O)(C(=O)O)C[C@@H]1O [CMP-Neu5Ac]
- kcat (CMP-Neu5Ac) [1]: 23 ± 1 s⁻¹
- kcat (CMP-Neu5Ac) [2]: 26 ± 1 s⁻¹
- kcat (CMP-Neu5Ac) [3]: 19 ± 1 s⁻¹
- kcat (CMP-Neu5Ac) [4]: 0.59 ± 0.01 s⁻¹
- kcat (CMP-Neu5Ac) [5]: 0.93 ± 0.02 s⁻¹
